Data as given in publication PMC8402032, “Unsymmetric Cisplatin-Based Pt(IV) Conjugates Containing a PARP-1 Inhibitor Pharmacophore Tested on Malignant Pleural Mesothelioma Cell Lines” (Molecules, 2021).

Tests used:
[1] = test system: MSTO-211H multicellular spheroids (MCS); assay: Apoptosis in MSTO-211H multicellular spheroids; type: cell-based, human; conditions: MSTO-211H MCS, 10 μM, 72 h; spheroid morphology, PARP-1 cleavage, BIM and PUMA induction
Procedure: The capability of compound 6 to induce apoptosis was confirmed also when MSTO-211H cells were cultured as multicellular spheroids (MCSs). MCSs and other similar 3D cultures represent an improvement of classical 2D conditions, having a more complex architectural structure and better bio-mimicking of the in vivo microenvironment. Although they suffer many of the limitations of the 2D cultures, they are a powerful tool to narrow down the gap between the in vitro and in vivo models.
Multicellular spheroids were generated in non-adsorbent round-bottomed 96-well plates, as previously described. The 96-well plates were coated with a 1:24 dilution of polyHEMA (120 mg mL^−1) in 95% ethanol and dried at 37 °C for 24 h. Before use, plates were sterilized by UV light for 30 min. For generation of multicellular spheroids, 1 × 10^4 cells were added into each well of a polyHEMA-coated 96-well plate and placed in a 37 °C humidified incubator with 5% CO2. Every 24 h, 50% of supernatant was replaced with fresh medium.
Figure 5 Compound 6 induces apoptosis in MSTO-211H multicellular spheroids (MCS). (A) Representative microscope images of MCS treated for 72 h with diluent (Ctrl) or 10 μM 6. Scale bar = 100 μm. (B) Representative Western blot showing PARP-1 cleavage in MSTO-211H MCS treated with 6. Tubulin was used as loading control. […]

[2] = test system: BR95 (epithelioid) malignant pleural mesothelioma cells; assay: Cell viability assay (Trypan blue dye exclusion), BR95; type: cell-based, human; conditions: 72 h treatment
Procedure: (§1) Complexes 6–9 were tested on a panel of human MPM cell lines together with CDDP and SAA1, added for comparison (Table 1). The half-maximal inhibitory concentration, IC50, was determined on MSTO-211H (biphasic phenotype), REN (epithelioid), BR95 (epithelioid), and MM98 (sarcomatoid) cancer cell lines to identify the most promising Pt(IV) conjugate to be further investigated. To determine the number of viable cells, the use of the dye exclusion assay was preferred to the colorimetric assay because of the heterogeneity in the energy metabolism between the different MPM cell lines. This may justify minor differences with respect to the previously published IC50 for CDDP [40].
(§2) Cells were seeded at a density of 10 × 10^4 cells per well in 6-well plates in RPMI medium supplemented with 10% fetal bovine serum (FBS), 100 μg mL^−1 streptomycin, and 10 μg mL^−1 penicillin and incubated overnight at 37 °C in a humidified environment containing 5% CO2 to allow adherence. Cisplatin was dissolved in 0.9% w/v aqueous NaCl brought to pH = 3 with HCl (final stock concentration 1 mM). The Pt(IV) complexes were dissolved in DMSO (final stock concentration 5 mM); the resulting solutions were microfiltered (0.45 μm) and their Pt content was checked by ICP-MS (see Section 3.5.2). These mother solutions were diluted in complete medium to the required concentration range.
(§3) Following 72 h of treatment with the diluent of the compound (Ctrl) or different doses of the Pt compounds, cells were trypsinized and stained with Trypan blue. The number of cells considered viable (unstained cells) was counted in a Bürker haemocytometer within 5 min after staining.

[3] = test system: REN (epithelioid) malignant pleural mesothelioma cells; assay: Cell viability assay (Trypan blue dye exclusion), REN; type: cell-based, human; conditions: 72 h treatment
Procedure: as §1, §2, §3

MSTO-211H cells = assay: γH2AX foci immunofluorescence; type: cell-based, human; conditions: 5 µM, 72 h
Procedure: This is in tune with the activation by reduction mechanism (Scheme 1) that is able to generate CDDP in the cells.
MSTO-211H cells were plated on slides and treated for 72 h with diluent or 5 μM complex 6. Slides were then fixed for 20 min with 4% paraformaldehyde (Sigma-Aldrich), rinsed with PBS, and then the cells were permeabilized for 5 min in 0.1% Triton X-100, followed by three 5 min PBS washes. Slides were treated thrice for 10 min in a blocking solution of 5% bovine serum albumin (BSA) (Invitrogen). Mouse anti-γH2AX antibody (Millipore) was added (1:100 in 1% BSA) and incubated for 1 h in a dark, humidified environment at room temperature. Slides were then exposed to a secondary goat anti-mouse antibody, FITC (1:100 in PBS) and incubated for 1 h in the dark, humidified environment at room temperature. Slides were rinsed thrice in PBS, mounted, and cell imaged with a Leica fluorescence microscope.
(§4) Figure 4 (A) Representative Western blot showing poly(ADP-ribose) (PAR) and PARP-1 expression following 72 h MSTO-211H cell treatment with diluent (Ctrl) or 5 µM concentrations of cisplatin (CDDP), 6, CDDP + 3-ABA combination (1:1 ratio), and 3-ABA alone. HSC70 protein was used as loading control. (B) Immunocytochemistry was used to capture representative γH2AX focus images following 72 h MSTO-211H cell treatment with diluent (Ctrl) or 5 µM of complex 6.

PARP-1 = molecular target: T1, PARP-1 (Homo sapiens, UniProt P09874); assay: Western blot of poly(ADP-ribose) (PAR) and PARP-1 in MSTO-211H cells; type: cell-based; conditions: 5 µM, 72 h
T1 construct: endogenous in cells; host or cells: MSTO-211H cells
T1 sequence (P09874 whole entry): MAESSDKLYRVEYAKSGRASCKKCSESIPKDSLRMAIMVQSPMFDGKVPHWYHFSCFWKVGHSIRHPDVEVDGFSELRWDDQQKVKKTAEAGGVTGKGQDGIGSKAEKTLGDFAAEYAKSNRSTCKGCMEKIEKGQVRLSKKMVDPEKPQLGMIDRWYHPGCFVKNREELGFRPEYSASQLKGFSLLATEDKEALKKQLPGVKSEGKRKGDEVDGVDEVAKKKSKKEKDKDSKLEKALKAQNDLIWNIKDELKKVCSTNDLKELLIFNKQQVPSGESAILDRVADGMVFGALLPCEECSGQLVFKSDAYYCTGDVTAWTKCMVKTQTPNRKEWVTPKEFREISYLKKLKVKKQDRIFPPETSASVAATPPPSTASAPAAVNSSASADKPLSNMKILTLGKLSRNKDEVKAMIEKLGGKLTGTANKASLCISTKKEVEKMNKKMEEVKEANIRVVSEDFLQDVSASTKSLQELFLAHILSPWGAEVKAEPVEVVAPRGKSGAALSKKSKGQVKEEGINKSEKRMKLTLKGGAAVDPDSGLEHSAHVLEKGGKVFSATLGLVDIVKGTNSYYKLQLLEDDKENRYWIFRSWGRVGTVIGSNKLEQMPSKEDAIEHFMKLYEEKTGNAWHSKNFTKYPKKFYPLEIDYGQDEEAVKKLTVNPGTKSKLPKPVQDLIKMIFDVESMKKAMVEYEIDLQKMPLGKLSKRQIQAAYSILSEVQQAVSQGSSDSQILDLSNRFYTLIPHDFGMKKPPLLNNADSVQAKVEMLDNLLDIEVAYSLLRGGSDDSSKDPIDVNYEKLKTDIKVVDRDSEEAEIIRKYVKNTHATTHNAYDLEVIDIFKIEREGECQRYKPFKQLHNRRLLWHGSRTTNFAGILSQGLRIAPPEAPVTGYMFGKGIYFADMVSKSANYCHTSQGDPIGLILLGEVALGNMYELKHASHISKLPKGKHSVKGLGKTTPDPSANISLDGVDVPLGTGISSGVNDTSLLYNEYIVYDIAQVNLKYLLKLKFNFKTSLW
Procedure: The effect of the most promising complex 6 on PARP-1 activity was further evaluated. MSTO-211H cells were treated with equimolar concentrations (5 µM) of 6, CDDP, and 3-ABA for 72 h. The two last compounds were used either alone or in combination in a 1:1 molar ratio. Western blot analysis evaluated the expression of poly(ADP-ribose) (PAR), which is the product of PARP-1 activity (Figure 4A).
For protein analysis, cells were extracted with 1% NP-40 lysis buffer (50 mM Tris-HCl pH 8.5 containing 1% NP-40, 150 mM NaCl, 10 mM EDTA, 10 mM NaF, 10 mM Na4P2O7, and 0.4 mM Na3VO4) with freshly added protease inhibitors (10 μg mL^−1 leupeptin, 4 μg mL^−1 pepstatin, and 0.1 U mL^−1 aprotinin). Lysates were centrifuged at 13,000× g for 10 min at 4 °C and the supernatants were collected and assayed for protein concentration with the Bradford assay method (Bio-Rad). Proteins were separated by SDS-PAGE (sodium dodecyl sulfate polyacrylamide gel electrophoresis) under reducing conditions. Following SDS-PAGE, proteins were transferred to nitrocellulose, reacted with specific antibodies, and then detected with peroxidase-conjugate secondary antibodies and chemioluminescent ECL reagent. Digital images were taken with the Bio-Rad ChemiDocTM Touch Imaging System and quantified using Bio-Rad Image Lab 5.2.1.
as §4

human MPM cell lines = assay: Antiproliferative activity on the panel of human MPM cell lines (summary); type: cell-based
Procedure: as §1
Cells were seeded at a density of 10 × 10^4 cells per well in 6-well plates in RPMI medium supplemented with 10% fetal bovine serum (FBS), 100 μg mL^−1 streptomycin, and 10 μg mL^−1 penicillin and incubated overnight at 37 °C in a humidified environment containing 5% CO2 to allow adherence. Cisplatin was dissolved in 0.9% w/v aqueous NaCl brought to pH = 3 with HCl (final stock concentration 1 mM). […]
as §3

With CC(=O)[O][Pt]([NH2])([NH2])([Cl])([Cl])[O]C(=O)CCNC(=O)c1cccc(NC(=O)OCC2c3ccccc3-c3ccccc32)c1 [Compound 6, (OC-6-44)-Acetato[3-(3-(fmoc-amino)-benzamido)-propanoato]-diammine-dichlorido-platinum(IV)] the “apoptosis in multicellular spheroids” value [1] was “apoptotic death was evidenced”, the “ratio IC50 (cisplatin)/IC50 (Pt(IV) complex), BR95” value [2] was 2.6 and the IC50 ([2]; mean ± sd) was 830 ± 40 nM. The “ratio IC50 (cisplatin)/IC50 (Pt(IV) complex), REN” value [3] was 1.9, the IC50 ([3]; mean ± sd) was 1590 ± 70 nM and the “DNA damage (γH2AX foci)” value (MSTO-211H cells) was “increased number of γH2AX foci”. The PARP-1 cleavage (PARP-1) was “complex 6 alone did”, the “PARP-1 parylation (PAR expression)” value (PARP-1) was “No self-parylation of PARP-1” and the “ratio between the IC50 of CDDP and the IC50 of the Pt(IV) complex, all cell lines” value (human MPM cell lines) was “around 2”.
